Measurements as given in paper PMC10188280 (Inorganic chemistry, 2022).

Assays:
A2780 cells = assay: Cell cycle analysis by flow cytometry; format: cell-based; conditions: 24 h, lower of two concentrations close to 24-h IC50
MCF-7 (Breast) = assay: MTT antiproliferative assay, 72 h; format: cell-based; conditions: read-out: IC50 values MCF-7 (Breast), 72 h exposure, mean ± SDM, n = 3
A2780 (Ovary) = assay: MTT antiproliferative assay, 72 h; format: cell-based; conditions: read-out: IC50 values A2780 (Ovary), 72 h exposure, mean ± SDM, n = 3
Caco-2 (Colon) = assay: MTT antiproliferative assay, 72 h; format: cell-based; conditions: read-out: IC50 values Caco-2 (Colon), 72 h exposure, mean ± SDM, n = 3
MDA-MB-231 (Breast) = assay: MTT antiproliferative assay, 72 h; format: cell-based; conditions: read-out: IC50 values MDA-MB-231 (Breast), 72 h exposure, mean ± SDM, n = 3
SK-OV-3 (Ovary) = assay: MTT antiproliferative assay, 72 h; format: cell-based; conditions: read-out: IC50 values SK-OV-3 (Ovary), 72 h exposure, mean ± SDM, n = 3
HT-29 (Colon) = assay: MTT antiproliferative assay, 72 h; format: cell-based; conditions: read-out: IC50 values HT-29 (Colon), 72 h exposure, mean ± SDM, n = 3
[1] = unsubstituted (lacking the N4 phenyl) compound; cited from earlier work

SMILES | cell cycle distribution at the lower concentration (A2780 cells) | IC50 (MCF-7 (Breast)) [µM] | IC50 (A2780 (Ovary)) [µM] | IC50 (Caco-2 (Colon)) [µM] | IC50 (MDA-MB-231 (Breast)) [µM] | IC50 (SK-OV-3 (Ovary)) [µM] | IC50 (HT-29 (Colon)) [µM] | pKa [1]
CC(=O)N(O)CCCCCNC(=O)CCC(=O)N(O)CCCCCNC(=O)CCC(=O)N(O)CCCCCN [DFO] | a larger fraction of cells was able to proceed to the S phase but remained unable to reach the G2 phase | 22.5 ± 0.3 | 1.9 ± 0.1 | 3.9 ± 0.5 | 4.58 ± 0.03 | 9.5 ± 0.5 | 2.3 ± 0.2 | –
Oc1ccccc1C=NNC(=S)Nc1ccccc1 [STC1] | – | 1.74 ± 0.04 | 1.9 ± 0.1 | 7.3 ± 0.8 | 4.8 ± 0.2 | 2.3 ± 0.2 | 9.5 ± 0.5 | –
NC(=S)N/N=C/c1ccccc1O [salicylaldehyde thiosemicarbazone] | – | – | – | – | – | – | – | 8.8
